The source of these data is patent US6218405A, “Heteroarylsulfonamide derivatives and pharmaceutical compositions containing them” (KNOLL Aktiengesellschaft, priority 1996, dated 2001).

The subject of experiment [1] is D2-like dopamine receptors. Put plainly: D2-like dopamine receptor binding: displacement of tritiated (S)-sulpiride in rat striatal tissue. Particulars: tritiated (S)-sulpiride 1 nM, 4° C., 40 minutes. Details: species or system male Charles River CD rats. As for the experimental part:
Striatal tissue from the brains of male Charles River CD rats weighing between 140-250 g were homogenised in ice-cold 50 mM Tris-HCl buffer (pH 7.7 when measured at 25° C.) and centrifuged at 40,000 g for 10 minutes. The pellet was resuspended in Tris salts buffer (50 mM Tris-HCl buffer containing 120 mM NaCl, 5 mM KCl, 2 mM CaCl2 and 1 mM MgCl2 with the addition of 6 mM ascorbic acid; pH 7.7 when measured at 25° C.), and again centrifuged at 40,000 g for 10 minutes. The final pellet was stored at -80° C. Before each test the pellet was resuspended in Tris salts buffer (equivalent to 2 mg wet weight of tissue/ml). Aliquots (720 μl; equivalent to 1.44 mg wet weight of tissue/tube) of this suspension were then added to tubes containing the ligand (40 μl; 1 nM) and Tris salts buffer (40 μl; total binding) or spiroperidol (40 μl; 10 nM; non-specific binding) or test compound (40 μl; at a single concentration of 10^-6 M or at 6 concentrations ranging from 10^-11 -10^-4 M). The ligand was tritiated (S)-sulpiride and the mixture was incubated at 4° C. for 40 minutes before the incubation was terminated by rapid filtration.
The filters were washed with ice-cold Tris-HCl buffer and dried. The filters were punched out in to vials, scintillation fluid added and were left for about 20 hours before being counted by scintillation spectrophotometry. The percentage displacement of specific binding of the tritiated ligand was calculated for the single concentration (10^-6 M) of test compound. Displacement curves were then produced over a range of concentrations for those compounds which displaced ≥50% of specific binding of the tritiated ligand at 10^-6 M. The concentration which gave a 50% inhibition of specific binding (IC50) was obtained from the curve. The inhibition coefficient Ki was then calculated using the formula [formula]
(§1) in which [ligand] is the concentration of the tritiated ligand used and KD is the equilibrium dissociation constant for the ligand.
(§2) The % figures in Table 1 are for % displacement at 10^-6 M.

Another experiment addresses T1, 5-HT1A receptors (Rattus norvegicus, UniProt P19327).
T1 construct: Hippocampal tissue from the brains of male Charles River CD rats; from tissue; host or cells: hippocampal tissue from brains of male Charles River CD rats
T1 sequence (P19327 1-422): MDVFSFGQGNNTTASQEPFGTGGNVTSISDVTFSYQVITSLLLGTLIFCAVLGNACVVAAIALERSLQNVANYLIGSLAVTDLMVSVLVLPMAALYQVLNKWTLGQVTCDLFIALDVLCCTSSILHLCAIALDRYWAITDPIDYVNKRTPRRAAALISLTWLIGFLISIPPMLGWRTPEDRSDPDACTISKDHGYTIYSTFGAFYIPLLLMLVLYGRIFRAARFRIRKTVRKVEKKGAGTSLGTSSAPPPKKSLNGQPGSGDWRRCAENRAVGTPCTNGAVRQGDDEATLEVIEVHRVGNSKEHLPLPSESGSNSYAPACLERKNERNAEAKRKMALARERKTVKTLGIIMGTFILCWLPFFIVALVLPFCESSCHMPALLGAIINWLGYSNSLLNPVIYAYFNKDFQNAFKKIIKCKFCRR
Put plainly: 5-HT1A receptor binding: displacement of [3H]8-hydroxy-2-(dipropylamino)tetralin in rat hippocampal tissue. Details: species or system male Charles River CD rats. Particulars: 0.5 h, 10^-6 M, [3H]-OH-DPAT 2 nM, 25° C., 30 minutes, read-out: % displacement at 10^-6 M, 5-HT1A (column headed Ki (nM) value for 5-HT1A). As for the experimental part:
Hippocampal tissue from the brains of male Charles River CD rats weighing between 150-250 g were homogenised in ice-cold 50 mM Tris-HCl buffer (pH 7.7) when measured at 25° C., 1:40 w/v) and centrifuged at 30,000 g at 4° C. for 10 minutes. The pellet was rehomogenised in the same buffer, incubated at 37° C. for 10 minutes and centrifuged at 30,000 g at 4° C. for 10 minutes. The final pellet was resuspended in 50 mM Tris-HCl buffer (pH 7.7) containing 4 mM CaCl2, 0.1% L-ascorbic acid and 10 μM pargyline hydrochloride (equivalent to 6.25 mg wet weight of tissue/ml) and used immediately in the binding assay. Aliquots (400 μl; equivalent to 2.5 mg wet weight of tissue/tube) of this suspension were added to tubes containing the ligand (50 μl; 2 nM) and distilled water (50 μl; total binding) or 5-HT (50 μl; […]; non-specific binding) or test compound (50 μl; at a single concentration of 10^-6 M or at 10 concentrations ranging from 10^-11 -10^-3 M). The ligand was [^3 H]8-hydroxy-2-(dipropylamino)tetralin ([^3 H]-OH-DPAT) and the mixture was incubated at 25° C. for 30 minutes before the incubation was terminated by rapid filtration.
The filters were washed with ice-cold Tris-HCl buffer and dried. The filters were punched out into vials, scintillation fluid added and radioactivity determined by liquid scintillation counting. The percentage displacement of specific binding of the tritiated ligand was calculated for the single concentration (10^-6 M) of test compound. Displacement curves were then produced for those compounds which displaced ≥50% of specific binding of the tritiated ligand at 10^-6 M using a range of concentrations of the compound. The concentration which gave 50% inhibition of specific binding (IC50) was obtained from the curve. The inhibition coefficient Ki was then calculated using the formula [formula]
as §1, §2

As for `O=S(=O)(NCC1CCN(C[C@H]2COc3ccc4scc(Cl)c4c3O2)CC1)c1ccccn1` [Example 1, (S)-N{[1-(9-chloro-2,3-dihydrothieno[3,2-f][1,4]benzodioxin-2-ylmethyl)piperid-4-yl]methyl}pyridine-2-sulphonamide], the “% displacement at 10^-6 M, D2-like (column headed Ki (nM) value for D2-like)” value in experiment [1] turned out to be 106%. In addition, the inhibition at 1 µM on 5-HT1A receptors was found to be 98%.
The like results for `CC(=O)Nc1ccc(S(=O)(=O)NCC2CCN(C[C@H]3COc4ccc5[nH]ccc5c4O3)CC2)cc1` [Example 3, (S)-4-acetamido-N-{[1-(2,3-dihydro-7H-1,4-dioxino[2,3-e]indol-2-ylmethyl)piperid-4-yl]methyl}benzenesulphonamide] were, in that order, 105% and 97%.
On to `O=S(=O)(NCC1CCN(C[C@H]2COc3ccc4[nH]ccc4c3O2)CC1)c1ccccn1` [Example 2, (S)-N-{[1-(2,3-dihydro-7H-1,4-dioxino[2,3-e]indol-2-ylmethyl)piperid-4-yl]methyl}pyridine-2-sulphonamide], for which the “% displacement at 10^-6 M, D2-like (column headed Ki (nM) value for D2-like)” value in experiment [1] was determined as 105%. The inhibition at 1 µM on 5-HT1A receptors turned out to be 99%.
